The target of data set [1] is T1, disrupted lysosomes isolated from the human B cell line EDR (TTCF processing activity) (Homo sapiens, UniProt Q99538).
T1 construct: disrupted lysosomes isolated from the human B cell line EDR; endogenous in cells; host or cells: human B cell line EDR, Percoll-gradient lysosomal fraction, disrupted
T1 sequence (Q99538 26-323 limits assumed): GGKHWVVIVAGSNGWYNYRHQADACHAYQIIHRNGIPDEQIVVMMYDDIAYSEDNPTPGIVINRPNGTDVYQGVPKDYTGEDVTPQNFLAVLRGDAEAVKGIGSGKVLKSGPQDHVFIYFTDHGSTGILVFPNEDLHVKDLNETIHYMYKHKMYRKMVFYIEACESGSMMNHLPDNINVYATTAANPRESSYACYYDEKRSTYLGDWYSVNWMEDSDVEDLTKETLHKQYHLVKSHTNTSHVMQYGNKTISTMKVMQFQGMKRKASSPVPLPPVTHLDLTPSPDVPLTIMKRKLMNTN
The data set is described as follows: Digestion of TTCF by disrupted B cell lysosomes, SDS-PAGE readout. Type of data set: biochemical. The conditions noted are these: 4 hours at 37°C, Fig 1a; for inhibition of lysosomal digestion of TTCF: inhibitor at 0.1 mg/ml, pH 4.5. As for the experimental part: The invention will now be described by reference to the following Examples and Figures wherein • Figure 1: Processing of TTCF by a leupeptin-insensitive cysteine endopeptidase activity. (a) TTCF was digested in vitro in the presence of disrupted lysosomes (1-2 µg) in the presence or absence of iodoacetamide (1 mM), leupeptin, E64 or pepstatin (each at 0.1 mg/ml). Digestions were in 0.1 M NH4 acetate at pH 4.5 or Na2HPO4, pH 6.0 or 7.0. After 4 hours at 37°C, the reactions were separated by Tris-tricine SDS-PAGE and stained with Coomassie Blue. (b) Cleavage sites: TTCF digestion products were separated by SDS PAGE and electrophoretically transferred to nitrocellulose membrane. Individual fragments numbered 1-6 were subjected to 5 cycles of Edman degradation. N-terminal sequence obtained is shown in bold following upstream residues from TTCF (tetanus toxin numbering). The N-terminal sequence of His-tagged TTCF was obtained for fragments 1 and 3. (c) Residues Asn 1184 and Glu 1184 in TTCF were mutated to alanine (see Methods) and digestions performed as before. The mutation abolishes cleavage at the mutated site but not at the first site (doublet at 47 kD). In this experiment cleavage of the third site was minimal. • Figure 2: TTCF is processed by an asparaginyl endopeptidase. (a) Chromatography of the TTCF processing activity on Mono-S resin. Fractions eluted by NaCl gradient were incubated with the substrates Z-Ala-Ala-Asn-NHMec or Z-Phe-Arg-NHMec in the presence or absence of E64 (trans-epoxysuccinyl-L-leucylamido-(4-guanidino)butane). […] (b) Fractions as above were incubated with 10 µg TTCF in the presence or absence of E64 for 4 hours at 37°C prior to SDS-PAGE analysis. (c) Each fraction was analysed by SDS-PAGE and Western blotting. Electrophoretically transferred material was probed with an affinity purified antiserum raised against the peptide KGIGSGKVLKSGPQC from human legumain^1. • Figure 3: Peptide inhibitors of AEP block asparaginyl endopeptidase activity and TTCF processing in vitro and in vivo. (a) TTCF was digested with purified AEP (legumain from pig kidney) in the presence or absence of 0.2 mg/ml of the peptides indicated. […] (b) Purified AEP or a crude lysosomal protease mixture were incubated with Z-Ala-Ala-Asn-NHMec, Z-Phe-Arg-NHMec (cathepsins L&B) or Z-Val-Val-Ala NHMec (cathepsin S) in the presence of increasing concentrations of AENK or AEQK. Release of 7-amino-4-methyl coumarin was measured after 10, 20 or 30 minutes. […] At different times the cells were washed, fixed in 0.05 % glutaraldehyde and co-cultured with autologous TTCF specific T cell clones. […] Proteins obtained from commercial sources, as described in the literature or custom peptides were digested with purified pig kidney legumain at pH 5.5 in the presence of 1 mM DTT. […] When present peptide was maintained during antigen pulsing at 1 mg/ml (a) or 2 mg/ml (b). At different times the cells were washed, fixed in 0.05 % glutaraldehyde and antigen presentation measured using proliferation of different autologous TTCF-specific T cell clones. c, AEP pre-processing of TTCF speeds antigen presentation. […] Presentation was measured after 60 minutes of antigen pulsing using EBV B cells.
[…]. […] Nor could we reproduce the lysosomal TTCF digestion pattern or indeed generate any of these fragments using purified cathepsins L, S, B, D or E , all of which have been implicated in the class II MHC antigen processing pathway (reviewed in refs 5 & 6).
TTCF processing activity. Lysosomal fractions from the human B cell line EDR were prepared on 27 % Percoll density gradients as previously described^8 using ^125I-labelled transferrin (internalised for 30 minutes at 37°C) and β-hexosaminidase to identify endosomal/plasma membrane and lysosomal fractions respectively. The peak of lysosomes was collected by centrifugation at 40,000 g for 1 hour, removed from the underlying Percoll pellet, collected again at 50,000 g for 1 hour and stored frozen. […]

Data set [2] has as its system Asparagine endopeptidase (AEP). The data set is described as follows: AEP.
Data set [3] in a line: Mono-S fractions of the partially purified TTCF processing activity from a crude B cell lysosome fraction. The conditions noted are these: human, 37°C, up to 4 hours.
A further data set relates to AEP. The data set is described as follows: Purified AEP. To be noted: up to 30 minutes.
Data set [4] can be described thus: B cell lysosomal fractions (crude lysosomal protease mixture). The conditions noted are these: human, up to 30 minutes.
Data set [5] can be described thus: crude lysosomal protease mixture (B cell lysosomal fractions). The conditions noted are these: human, up to 30 minutes.

“Also recorded” adds a separate entry of the source. Non-standard residues stand in square brackets, D forms with d. Residues, ends and D or L forms follow the SMILES beside them. *: point of attachment. Sta = CC(C)C[C@H](N)[C@@H](O)CC(=O)O; Isovaleryl = CC(C)CC(=O)*

In the case of `NC(=O)CI` [iodoacetamide], in data set [1] (iodoacetamide 1 mM), the “sensitivity of lysosomal TTCF digestion activity to inhibitor” value is given as “sensitive”. Turning to `CC(=O)N[C@@H](CC(C)C)C(=O)N[C@@H](CC(C)C)C(=O)N[C@H](C=O)CCCNC(=N)N` [leupeptin, acetyl-leucyl-leucyl-arginal], the “inhibition of lysosomal digestion of TTCF” value in data set [1] is reported as “could not inhibit; also recorded: completely resistant”. Take `CC(C)CC(=O)N[C@H](C(=O)N[C@H](C(=O)N[C@@H](CC(C)C)[C@@H](O)CC(=O)N[C@@H](C)C(=O)N[C@@H](CC(C)C)[C@@H](O)CC(=O)O)C(C)C)C(C)C` [pepstatin] (Isovaleryl-VV[Sta]A[Sta]-OH): the “inhibition of lysosomal digestion of TTCF” value in data set [1] is given as “could not inhibit”. As to QQQHLFGSN(CHO)VTDCSGNFCLFR, in data set [2], the cleaved bond result is “N637-F638”; the not cleaved entry was “fragments VTDCSGNFCLFR and QQQHLFGSN(CHO) not observed”. For the molecule QQQHLFGSNVTDCSGNFCLFRKKK, the cleaved bond entry in data set [2] was “N630-V631; also recorded: N637-F638”.

Regarding Z-Ala-Ala-Asn-7-(4-methyl)coumarylamide, the cleaved bond result in data set [3] is listed as “Asn-7-(4-methyl)coumarylamide”; in the data set with AEP it was “Asn-NHMec, 10 minutes”.

Consider Z-Phe-Arg-NHMec, for which the cleaved bond result in data set [4] and in data set [5] was “Arg-NHMec” in each case.

Consider Z-Val-Ala-Asn-NHMec, for which the cleaved bond entry in data set [4] is on record as “Asn-NHMec”.

(Values after patent publication EP1066315B1 (University of Dundee, priority 1998, dated 2008).)
